Broadly, the Kd is the equilibrium constant for the complex coming apart. High values mean lower affinity, low ones higher affinity.

For the assay, the target named is Hsp90α (Homo sapiens, UniProt P07900). Description: SPR. It counts as binding.

In turn, `CN1C(=O)[C@@]23C[C@]4([C@]56C[C@@]78SS[C@@](CO)(C(=O)N7[C@H]5Nc5ccccc56)N(C)C8=O)c5ccccc5N[C@@H]4N2C(=O)[C@]1(CO)SS3` [Chaetocin] had a dissociation constant Kd of 2.82 µM.

Values taken from article PMC7771846 (Biomolecules & Therapeutics, 2020).
